# Values of other authors as cited in patent publication US9238024B2, “Methods for improving health in canines” (Quality IP Holdings, LLC, priority 2012, dated 2016).
# Tests used:
# [1] = tested on: canines
# [2] = tested on: canines; remark: listed apart in the source
Compound,levels of serum insulin-like growth factor-I ([1]; canines),size and strength of the quadriceps muscle ([1]; canines during remobilization),"new bone formation ([2]; adult canines of both sexes, exogenous growth hormone)",bone growth factors and fracture healing ([2]; canines),quantity of protein in the blood plasma ([2]; canines given growth hormone)
CC(C)(N)C(=O)N[C@H](COCc1ccccc1)C(=O)N1CCC2(CC1)CN(S(C)(=O)=O)c1ccccc12 [MK-0677],elevates,increases,–,–,–
growth hormone,–,–,marked increase,enhances,increased
